{
  "source": "paper PMC7281072",
  "about": "(Cancers, 2020)",
  "key": {"[1]": {"test_system": "OVCAR-5 human ovarian adenocarcinoma xenograft", "design": "species or system CB17 SCID mice", "conditions": "mouse, in vivo"}, "[2]": {"assay": "in vivo", "conditions": "both, CB17 SCID, mouse, ip"}, "[3]": {"test_system": "CB17 SCID mice", "conditions": "both, mouse, in vivo, ip"}, "[4]": {"test_system": "SKOV-3 human ovarian adenocarcinoma xenograft", "design": "species or system CB17 SCID mice", "conditions": "mouse, in vivo"}},
  "data": [
    {"smiles": "NC(Cc1ccc(N(CCCl)CCCl)cc1)C(=O)O", "note": "[L-PAM, 2-amino-3-(4-(bis (2-chloroethyl)amino)phenyl) propanoic acid, reference compound]", "values": [
      {"measurement": "Median Overall Survival (OS)", "setting": "[1]", "result": 60, "unit": "days"},
      {"measurement": "Progression Free Survival (PFS)", "setting": "[1]", "result": 0, "unit": "days"},
      {"measurement": "Response Rate (RR)", "setting": "[1]", "result": 0, "unit": "%"},
      {"measurement": "antitumor activity (in words)", "setting": "[1]", "result": "no significant antitumor activity"},
      {"measurement": "Cures (mice alive for 120 days after tumor inoculation)", "setting": "[1]; ip", "result": "0/5"},
      {"measurement": "MST (mean survival time)", "setting": "[1]; ip", "result": "61.0 ± 4.3", "unit": "days"},
      {"measurement": "T/C% (mean survival time of treated versus saline controls)", "setting": "[1]; ip", "result": 120.8, "unit": "%"},
      {"measurement": "TI% (Tumor Inhibition)", "setting": "[1]; ip", "result": 24.5, "unit": "%"},
      {"measurement": "LD50", "setting": "[2]", "result": 20.8, "unit": "mg/kg"},
      {"measurement": "LD10", "setting": "[3]", "result": 14, "unit": "mg/kg"},
      {"measurement": "Median Overall Survival (OS)", "setting": "[4]", "result": 49, "unit": "days"},
      {"measurement": "Progression Free Survival (PFS)", "setting": "[4]", "result": 0, "unit": "days"},
      {"measurement": "Response Rate (RR)", "setting": "[4]", "result": 0, "unit": "%"},
      {"measurement": "antitumor activity (in words)", "setting": "[4]", "result": "no significant antitumor activity"},
      {"measurement": "Cures (mice alive for 120 days after tumor inoculation)", "setting": "[4]; ip", "result": "0/5"},
      {"measurement": "MST (mean survival time)", "setting": "[4]; ip", "result": "48.5 ± 2.3", "unit": "days"},
      {"measurement": "T/C% (mean survival time of treated versus saline controls)", "setting": "[4]; ip", "result": 119.7, "unit": "%"},
      {"measurement": "TI% (Tumor Inhibition)", "setting": "[4]; ip", "result": 10.5, "unit": "%"}
    ]}
  ]
}
